Here are results for 37 compounds from the NIST ThermoML archive (doi:10.1016/j.jct.2015.07.042).

A short description of this data set: activity coefficient (dimensionless); of the first substance listed, at infinite dilution; xn = mol fraction of the nth substance listed. Particulars: 101 kPa, Liquid, Chromatography, x1 = 0.

± gives the expanded uncertainty stated by the source.

As for `CCCCCCCC` [octane] + CCCCn1cc[n+](C)c1.COP(=O)([O-])OC, the activity coefficient (358.15 K) came out at 47.9 ± 3.3, the activity coefficient (368.15 K) is 46.2 ± 3.2, the activity coefficient (378.15 K) was 44.6 ± 3 and the activity coefficient (388.15 K) was determined as 43.4 ± 3.

For the compound `CC(C)OC(C)C` [diisopropyl ether] + CCCCn1cc[n+](C)c1.COP(=O)([O-])OC, the activity coefficient is, setting by setting: (358.15 K) 14.4 ± 0.98; (368.15 K) 14.3 ± 0.97; (378.15 K) 14.2 ± 0.97; (388.15 K) 14.1 ± 0.96.

As to `C=CCCCCCC` [oct-1-ene] + CCCCn1cc[n+](C)c1.CS(=O)(=O)[O-], the activity coefficient reads like this: (358.15 K) 88.1 ± 6; (368.15 K) 86.8 ± 6; (378.15 K) 86.5 ± 5.9; (388.15 K) 85.6 ± 5.9.

Consider `CCCCO` [butan-1-ol] + CCCCn1cc[n+](C)c1.CS(=O)(=O)[O-], for which the activity coefficient by setting is: (398.15 K) 0.937 ± 0.059; (408.15 K) 0.984 ± 0.062; (418.15 K) 1.02 ± 0.064; (428.15 K) 1.07 ± 0.068.

For the compound `C1COCCO1` [1,4-dioxane] + CCCCn1cc[n+](C)c1.CS(=O)(=O)[O-], the activity coefficient was 2.33 ± 0.16 (358.15 K), 2.41 ± 0.16 (368.15 K), 2.49 ± 0.17 (378.15 K) and 2.62 ± 0.18 (388.15 K).

On to `C1CCOC1` [tetrahydrofuran] + CCCCn1cc[n+](C)c1.COP(=O)([O-])OC, for which the activity coefficient by setting is: (358.15 K) 2.79 ± 0.19; (368.15 K) 2.84 ± 0.19; (378.15 K) 2.89 ± 0.2; (388.15 K) 3.02 ± 0.21.

As to `CCO` [ethanol] + CCCCn1cc[n+](C)c1.COP(=O)([O-])OC, the activity coefficient runs as follows: (398.15 K) 0.16 ± 0.029; (408.15 K) 0.173 ± 0.029; (418.15 K) 0.189 ± 0.029; (428.15 K) 0.205 ± 0.029.

As for `CCCC(C)=O` [pentan-2-one] + CCCCn1cc[n+](C)c1.[Cl-], the activity coefficient came out at 7.59 ± 0.52 (358.15 K), 7.71 ± 0.53 (368.15 K), 7.78 ± 0.53 (378.15 K) and 8.01 ± 0.55 (388.15 K).

As for `CCOC(C)=O` [ethyl acetate] + CCCCn1cc[n+](C)c1.[Cl-], the activity coefficient (358.15 K) stood at 9.02 ± 0.62, the activity coefficient (368.15 K) was 9.06 ± 0.62, the activity coefficient (378.15 K) stood at 9.1 ± 0.62 and the activity coefficient (388.15 K) is 9.16 ± 0.62.

Regarding `CC(C)CO` [2-methyl-1-propanol] + CCCCn1cc[n+](C)c1.[Cl-], the activity coefficient was 0.54 ± 0.039 (398.15 K), 0.576 ± 0.041 (408.15 K), 0.615 ± 0.043 (418.15 K) and 0.665 ± 0.045 (428.15 K).

With `C#CCCCCCC` [1-octyne] + CCCCn1cc[n+](C)c1.COP(=O)([O-])OC, the activity coefficient by setting is: (358.15 K) 6.04 ± 0.41; (368.15 K) 6.22 ± 0.42; (378.15 K) 6.48 ± 0.44; (388.15 K) 6.74 ± 0.46.

Consider `CCc1ccccc1` [ethylbenzene] + CCCCn1cc[n+](C)c1.COP(=O)([O-])OC, for which the activity coefficient reads like this: (358.15 K) 5.73 ± 0.39; (368.15 K) 5.87 ± 0.4; (378.15 K) 5.97 ± 0.41; (388.15 K) 6.26 ± 0.43.

Regarding `C1CCCCC1` [cyclohexane] + CCCCn1cc[n+](C)c1.COP(=O)([O-])OC, the activity coefficient (358.15 K) is 12.3 ± 0.84, the activity coefficient (368.15 K) worked out at 11.9 ± 0.81, the activity coefficient (378.15 K) is 11.6 ± 0.79 and the activity coefficient (388.15 K) was 11.4 ± 0.78.

Take `C1CCCCCC1` [cycloheptane] + CCCCn1cc[n+](C)c1.CS(=O)(=O)[O-]: the activity coefficient reads like this: (358.15 K) 44.2 ± 3; (368.15 K) 43.3 ± 3; (378.15 K) 42.6 ± 2.9; (388.15 K) 42.2 ± 2.9.

On to `c1ccncc1` [pyridine] + CCCCn1cc[n+](C)c1.CS(=O)(=O)[O-], for which the activity coefficient reads like this: (358.15 K) 10.9 ± 0.75; (368.15 K) 10.8 ± 0.74; (378.15 K) 10.6 ± 0.72; (388.15 K) 10.5 ± 0.71.

For `CCC(C)(C)OC` [2-methoxy-2-methylbutane] + CCCCn1cc[n+](C)c1.COP(=O)([O-])OC, the activity coefficient is, setting by setting: (358.15 K) 9.5 ± 0.65; (368.15 K) 9.61 ± 0.66; (378.15 K) 9.66 ± 0.66; (388.15 K) 9.75 ± 0.67.

For `C1CCCC1` [cyclopentane] + CCCCn1cc[n+](C)c1.CS(=O)(=O)[O-], the activity coefficient is 23.9 ± 1.6 (358.15 K), 23.7 ± 1.6 (368.15 K), 23.5 ± 1.6 (378.15 K) and 23.3 ± 1.6 (388.15 K).

Regarding `CCC(=O)OC` [methyl propanoate] + CCCCn1cc[n+](C)c1.CS(=O)(=O)[O-], the activity coefficient (358.15 K) is 4.43 ± 0.3, the activity coefficient (368.15 K) was determined as 4.56 ± 0.31, the activity coefficient (378.15 K) was determined as 4.68 ± 0.32 and the activity coefficient (388.15 K) was 4.9 ± 0.33.

For the compound `CCCC(=O)OC` [methyl butanoate] + CCCCn1cc[n+](C)c1.COP(=O)([O-])OC, the activity coefficient (358.15 K) was 4.93 ± 0.34, the activity coefficient (368.15 K) amounted to 5.04 ± 0.34, the activity coefficient (378.15 K) turned out to be 5.17 ± 0.35 and the activity coefficient (388.15 K) is 5.39 ± 0.37.

With `CCC(C)(C)OC` [2-methoxy-2-methylbutane] + CCCCn1cc[n+](C)c1.[Cl-], the activity coefficient was 34 ± 2.3 (358.15 K), 33.1 ± 2.3 (368.15 K), 32.2 ± 2.2 (378.15 K) and 32.1 ± 2.2 (388.15 K).

For the compound `CCOC(C)(C)C` [2-ethoxy-2-methylpropane] + CCCCn1cc[n+](C)c1.[Cl-], the activity coefficient (358.15 K) was 64.8 ± 4.4, the activity coefficient (368.15 K) is 59.3 ± 4.1, the activity coefficient (378.15 K) came out at 55.7 ± 3.8 and the activity coefficient (388.15 K) turned out to be 53.3 ± 3.6.

Take `CCOC(C)(C)C` [2-ethoxy-2-methylpropane] + CCCCn1cc[n+](C)c1.COP(=O)([O-])OC: the activity coefficient stood at 12.8 ± 0.87 (358.15 K), 12.8 ± 0.87 (368.15 K), 12.9 ± 0.88 (378.15 K) and 12.9 ± 0.88 (388.15 K).

In the case of `C1CCCCCC1` [cycloheptane] + CCCCn1cc[n+](C)c1.COP(=O)([O-])OC, the activity coefficient by setting is: (358.15 K) 15.1 ± 1; (368.15 K) 14.6 ± 1; (378.15 K) 14.3 ± 0.97; (388.15 K) 14 ± 0.96.

`Cc1cccc(C)c1` [1,3-dimethylbenzene] + CCCCn1cc[n+](C)c1.[Cl-]: the activity coefficient is 14.3 ± 0.98 (358.15 K), 14.5 ± 0.99 (368.15 K), 14.7 ± 1 (378.15 K) and 15 ± 1 (388.15 K).

As for `CCC(C)O` (stereo not drawn) [butan-2-ol] + CCCCn1cc[n+](C)c1.[Cl-], the activity coefficient by setting is: (398.15 K) 0.749 ± 0.049; (408.15 K) 0.804 ± 0.052; (418.15 K) 0.865 ± 0.055; (428.15 K) 0.931 ± 0.059.

For `C=C(C)c1ccccc1` [(1-methylethenyl)benzene] + CCCCn1cc[n+](C)c1.CS(=O)(=O)[O-], the activity coefficient by setting is: (358.15 K) 6.43 ± 0.44; (368.15 K) 6.71 ± 0.46; (378.15 K) 6.96 ± 0.47; (388.15 K) 7.41 ± 0.51.

On to `CCC[N+](=O)[O-]` [1-nitropropane] + CCCCn1cc[n+](C)c1.COP(=O)([O-])OC, for which the activity coefficient (358.15 K) turned out to be 1.5 ± 0.1, the activity coefficient (368.15 K) is 1.56 ± 0.1, the activity coefficient (378.15 K) worked out at 1.62 ± 0.11 and the activity coefficient (388.15 K) is 1.72 ± 0.12.

With `C1CCCCCCC1` [cyclooctane] + CCCCn1cc[n+](C)c1.[Cl-], the activity coefficient reads like this: (358.15 K) 79.5 ± 5.5; (368.15 K) 75.4 ± 5.2; (378.15 K) 71.1 ± 4.9; (388.15 K) 68.6 ± 4.7.

As for `CC(C)(C)O` [2-methylpropan-2-ol] + CCCCn1cc[n+](C)c1.CS(=O)(=O)[O-], the activity coefficient reads like this: (398.15 K) 1.28 ± 0.083; (408.15 K) 1.39 ± 0.09; (418.15 K) 1.48 ± 0.098; (428.15 K) 1.59 ± 0.11.

As for `CO` [methanol] + CCCCn1cc[n+](C)c1.[Cl-], the activity coefficient (398.15 K) was 0.156 ± 0.029, the activity coefficient (408.15 K) worked out at 0.166 ± 0.029, the activity coefficient (418.15 K) stood at 0.176 ± 0.029 and the activity coefficient (428.15 K) was 0.191 ± 0.029.

In the case of `CCc1ccccc1` [ethylbenzene] + CCCCn1cc[n+](C)c1.[Cl-], the activity coefficient (358.15 K) turned out to be 13.2 ± 0.9, the activity coefficient (368.15 K) came out at 13.2 ± 0.9, the activity coefficient (378.15 K) came to 13.5 ± 0.92 and the activity coefficient (388.15 K) was 13.7 ± 0.94.

For the compound `C#CCCCC` [1-hexyne] + CCCCn1cc[n+](C)c1.COP(=O)([O-])OC, the activity coefficient (358.15 K) was determined as 3.01 ± 0.2, the activity coefficient (368.15 K) is 3.22 ± 0.22, the activity coefficient (378.15 K) was 3.39 ± 0.23 and the activity coefficient (388.15 K) was determined as 3.57 ± 0.24.

As to `Cc1ccccc1C` [1,2-dimethylbenzene] + CCCCn1cc[n+](C)c1.COP(=O)([O-])OC, the activity coefficient was determined as 5.54 ± 0.38 (358.15 K), 5.7 ± 0.39 (368.15 K), 5.79 ± 0.39 (378.15 K) and 6.03 ± 0.41 (388.15 K).

`C#CCCC` [1-pentyne] + CCCCn1cc[n+](C)c1.CS(=O)(=O)[O-]: the activity coefficient is, setting by setting: (358.15 K) 5.46 ± 0.37; (368.15 K) 5.84 ± 0.4; (378.15 K) 6.26 ± 0.43; (388.15 K) 6.67 ± 0.45.

On to `c1ccccc1` [benzene] + CCCCn1cc[n+](C)c1.COP(=O)([O-])OC, for which the activity coefficient reads like this: (358.15 K) 2.33 ± 0.16; (368.15 K) 2.41 ± 0.16; (378.15 K) 2.49 ± 0.17; (388.15 K) 2.63 ± 0.18.

In the case of `CCC(C)O` (stereo not drawn) [butan-2-ol] + CCCCn1cc[n+](C)c1.CS(=O)(=O)[O-], the activity coefficient (398.15 K) amounted to 1.11 ± 0.071, the activity coefficient (408.15 K) worked out at 1.18 ± 0.075, the activity coefficient (418.15 K) is 1.25 ± 0.081 and the activity coefficient (428.15 K) amounted to 1.33 ± 0.087.

Turning to `CCO` [ethanol] + CCCCn1cc[n+](C)c1.[Cl-], the activity coefficient (398.15 K) was 0.297 ± 0.031, the activity coefficient (408.15 K) stood at 0.313 ± 0.031, the activity coefficient (418.15 K) was 0.332 ± 0.032 and the activity coefficient (428.15 K) is 0.353 ± 0.032.
